Three compounds from US5284870A, “Aldose reductase inhibitor” (Shionogi Seiyaku Kabushiki Kaisha, priority 1992, dated 1994) can be followed below.

For this assay, the target named is T1, aldose reductase (Rattus norvegicus, UniProt P07943).
T1 construct: Lenses were removed from 20 eyeballs of rats and homogenized in 4 ml of 5 mM mercaptethanol; from tissue; host or cells: rat lens, 10,000 rpm supernatant of homogenate
Kind of assay: Aldose reductase-inhibiting activity (absorbance change at 340 nm, homogenate of rat lenses as enzyme source, glyceroaldehyde substrate, NADPH coenzyme). The class given is biochemical. The settings on record: rat lens homogenate, 10 mM D,L-glyceroaldehyde, 0.4M Li2SO4, initial one minute. As for the experimental part:
The change in absorbance at 340 nm for initial one minute was measured, and the inhibiting activity was determined.
Lenses were removed from 20 eyeballs of rats and homogenized in 4 ml of 5 mM mercaptethanol using Glass-Teflon Homogenate. The obtained homogenate was centrifuged at 4° C. and 10,000 rpm for 20 minutes, and resulting supernatant was used as the enzyme source.

A word on the IC50: it is the concentration at which inhibition is half-maximal. On to `O=C(O)CCC1(O)OC2=CC(=O)c3c(O)cc(O)cc3C2=C1c1ccc(O)cc1` (stereo not drawn) [RF-3192 A], for which the 50% inhibitory concentration (IC50) reads like this: (mass concentration) 8.33 nM; (molar value in parentheses) 8.2 nM.
Regarding `O=C(O)CCC1(O)OC2=CC(=O)c3c(O)cc(O)cc3C2=C1c1ccccc1` (stereo not drawn) [RF-3192 B], the Ic50 (mass concentration) came to 1.6 ng/mL. The half-maximal inhibitory concentration (IC50) (molar value in parentheses) turned out to be 4.2 nM.
Taken in the same sequence, the figures for `O=C1C=C2OC3(O)CC(=O)c4c(O)cc(O)cc4C3=C2c2cc(O)cc(O)c21` (stereo not drawn) [RF-3192 C] were 130 ng/mL and 340 nM.
